Earlier results, collected in US9221747B2, “Method of making fatty acid N-acylalkanolamines” (Iowa State University Research Foundation, Inc., priority 2012, dated 2015).

Conditions: at −20° C.

| SMILES | solubility in methanol |
| --- | --- |
| CCCCC/C=C\C/C=C\CCCCCCCC(=O)O [linoleic acid] | 233 g/100 g methanol |
| CCCCCCCC/C=C\CCCCCCCC(=O)O [oleic acid] | 4.02 g/100 g methanol |
